Tested on: E. amylovora 153N
Assay: Fire blight on Snow Drift crabapple trees (Example 287)
Format: in vivo, Erwinia amylovora
Conditions: rate 5 lbs/a (2.27 kg/a), mean of the counts, 100 blossoms per subplot
Protocol: A study of the bioefficacy of the various agrichemical compositions, including bioactive acid solutions and blends thereof with an antibiotic agrichemical, were evaluated to assess their bioefficacy against fire blight on crabapples. The study was conducted on 5 year old Snow Drift crabapple trees, with each of the compositions being applied to ten trees in two-subplots of five trees, four different times: at 100% bloom—day 1, a second application was made on day 4, a third on day 11 and a final treatment on day 19. The trees were inoculated with E. amylovora 153N at a concentration of 4×10^6 cells per milliliter on day 1, following drying of the treatment, with the inoculation being repeated on day 13. Evaluation for fire blight was completed on 100 blossoms for each of the subplots on day 12, day 19 and day 27. Additionally, the incidence of shoot infection and the length of cankers were evaluated on day 63.
The test compositions were prepared by forming solutions of the bioactive agents. Two different dilutions of the MI2 bioactive were evaluated; the first employing 94.46 ml/gallon (25 ml/l) of water (5 ppm of each metal) and the second 188.9 ml/gallon (50 ml/l) of water (10 ppm of each metal). A streptomycin product (17% concentrated) was diluted at a rate of 0.049 lbs/gallon ([…]) (200 ppm). Finally, copper hydroxide was diluted at a rate of 1 lb/gallon (119.8 g/l). Each of the compositions and blends were spray applied at a rate of 50 gallons (189.3 l) pre acre. The results are presented as the mean of the counts.

[Cu+2].[OH-].[OH-] [copper hydroxide]
Blossom Incidence (Day 12): 3.1 | Blossom Incidence (Day 19): 2.2 | Blossom Incidence (Day 27): 9.0

Reference: US20080299222A1, “Bioactive agrichemical compositions and use thereof” (priority 2007, published 2008)
